This is an account of results in patent US6930098B2, “Use of polysulphated cyclodextrins for treating osteoarthritis” (Universiteit Gent, priority 2000, dated 2005).

The test has as its system Human articular chondrocytes. In words: Synthesis of extracellular aggrecans by chondrocytes cultured in agarose gel (35S incorporation). In kind it is cell-based. The following applies: 2.5 μg/ml, 48 hours with Na2 35SO4 after culturing for two weeks; for Amount of 35S-aggrecans associated with the cells: cell-associated fraction; for Amount of 35S-aggrecans in the medium: incubation medium fraction; for Amount of 35S-aggrecans in the interterritorial matrix: interterritorial matrix fraction. The method, then: Evaluation of the in vitro effects of polysulphated cyclodextrins on the synthesis of extracellular aggrecans by chondrocytes.
Human articular chondrocytes are isolated according to the methods described by W. T. Green Jr (Clin. Orthop., 1971, 75, 248-260) and K. E. Kuettner et al. (J. Cell. Biol., 1982, 93, 743-750).
The chondrocytes are then cultured in agarose gel, in accordance with the method described by P. D. Benya et al. (Cell., 1982, 30, 215-224) and modified according to M. Cornelissen et al. (J. Tiss. Cult. Meth., 1993, 15, 139-146) and according to G. Verbruggen et al. (Clin. Exp. Rheumatol, 1990, 8, 371-378).
Synthesis of aggrecans: This is measured by determining the incorporation of 35S, supplied by a radioactive precursor, sodium sulphate Na2^35SO4. After culturing for two weeks, 10 μCi/ml of the radio-labelled precursor are introduced into the culture medium for 48 hours, as well as the compounds under test (polysulphated α-, β- and γ-cyclodextrins) or the reference compounds (chondroitin sulphate and polysulphate) at an end concentration of 2.5 μg/ml.
The newly synthesised ^35S-aggrecans accumulate partly in the intercellular agarose medium or are released into the incubation medium.
At the end of the incubation period, the agarose gel is broken up mechanically and is then digested with 3 ml of a 50 U/ml solution of […] in a 0.067M phosphate buffer at pH 6.0, in the presence of proteinase inhibitors.
The suspension thereby obtained is centrifuged; the supernatant, which comprises the ^35S-aggrecans of the interterritorial matrix, and the incubation medium, comprising the metabolites of ^35S-aggrecans released into the extracellular matrix, are combined for subsequent chromatography.
The centrifuged pellet, comprising the chondrocytes and the ^35S-aggrecans associated therewith, is treated for 48 hours with 1 ml of a 4.0M solution of guanidinium chloride in a 0.05M acetate buffer at pH 5.8 comprising the proteinase inhibitors. The objective of this operation is to extract the ^35S-aggrecans associated with the cells. The solution obtained is centrifuged to separate the cells from the supernatant, which is separated off for subsequent chromatography. The chromatography operations on the various fractions obtained are carried out on Sephadex G25 gel in a pH 6.8 phosphate buffer containing 0.01M Na2SO4, so as to separate the ^35S-aggrecans from the free Na2^35SO4.
The radioactivity of each of the macromolecular eluates obtained is measured and related to the number of chondrocytes contained in the initial culture and is expressed in terms of pg of SO4 incorporated into the aggrecans, per million chondrocytes and per hour.

As for “chondroitin polysulphate [CPS, reference compound]”, the “Amount of 35S-aggrecans associated with the cells” value (shortened to “Amount of 35S-aggrecans associated”) is 1392 pg of SO4 incorporated into the aggrecans, per million chondrocytes and per hour; the “Amount of 35S-aggrecans in the medium” value was 2519 pg of SO4 incorporated into the aggrecans, per million chondrocytes and per hour; the “Amount of 35S-aggrecans in the interterritorial matrix” value was 6446 pg of SO4 incorporated into the aggrecans, per million chondrocytes and per hour.
Turning to “chondroitin sulphate [CS, reference compound]”, the “Amount of 35S-aggrecans associated” value was 1373 pg of SO4 incorporated into the aggrecans, per million chondrocytes and per hour; the “Amount of 35S-aggrecans in the medium” value was 2187 pg of SO4 incorporated into the aggrecans, per million chondrocytes and per hour; the “Amount of 35S-aggrecans in the interterritorial matrix” value was 6589 pg of SO4 incorporated into the aggrecans, per million chondrocytes and per hour.
For polysulphate β-cyclodextrin [β CD], the “Amount of 35S-aggrecans associated” value was 2262 pg of SO4 incorporated into the aggrecans, per million chondrocytes and per hour; the “Amount of 35S-aggrecans in the medium” value is 1658 pg of SO4 incorporated into the aggrecans, per million chondrocytes and per hour; the “Amount of 35S-aggrecans in the interterritorial matrix” value is 6232 pg of SO4 incorporated into the aggrecans, per million chondrocytes and per hour.
Take polysulphated α-cyclodextrin [α CD]: the “Amount of 35S-aggrecans associated” value is 1315 pg of SO4 incorporated into the aggrecans, per million chondrocytes and per hour; the “Amount of 35S-aggrecans in the medium” value is 1589 pg of SO4 incorporated into the aggrecans, per million chondrocytes and per hour; the “Amount of 35S-aggrecans in the interterritorial matrix” value was 8036 pg of SO4 incorporated into the aggrecans, per million chondrocytes and per hour.
On to polysulphated γ-cyclodextrin [γ CD], for which the “Amount of 35S-aggrecans associated” value was 2907 pg of SO4 incorporated into the aggrecans, per million chondrocytes and per hour; the “Amount of 35S-aggrecans in the medium” value is 3873 pg of SO4 incorporated into the aggrecans, per million chondrocytes and per hour; the “Amount of 35S-aggrecans in the interterritorial matrix” value was 8232 pg of SO4 incorporated into the aggrecans, per million chondrocytes and per hour.
